Experimental data published in patent US11834480B2 (priority 2020, dated 2023).
Square brackets hold non-standard residues; d marks the D form.

Assays:
[1] = target: D-form of SARS-CoV-2 HR1 (SARS CoV-2 D-HR1-biotin) (Severe acute respiratory syndrome coronavirus 2, UniProt P0DTC2); type: binding
[2] = target: L-form of SARS-CoV-2 HR1 (SARS CoV-2 HR1-biotin) (Severe acute respiratory syndrome coronavirus 2, UniProt P0DTC2); assay: biochemical; type: binding
[3] = system: SARS CoV-2 pseudotyped lentivirus; type: cell-based; settings: read-out: observed IC50, inhibition of pseudotyped virus infection

| Substance | affinity for SARS CoV-2 D-HR1-biotin compared with parental SEQ ID NO: 11 [1] | Kd [2] | IC50 [3] |
| --- | --- | --- | --- |
| ATVKFTYQGEEKQVDISKIKYVLRIGQAIWFRYDEGGGAIGNGWVSEEDAPKELLQMLEKR [SEQ ID NO:51] | higher affinity |  |  |
| [dA][dT][dV][dK][dF][dT][dY][dQ]G[dE][dE][dK][dQ][dV][dD][dI][dS][dK][dI][dK][dY][dV][dL][dR][dI]G[dQ][dA][dI][dW][dF][dR][dY][dD][dE]GGG[dA][dI]G[dN]G[dW][dV][dS][dE][dK][dD][dA][dP][dK][dE][dL][dL][dQ][dM][dL][dE][dK][dQ] [SEQ ID NO:12] |  | 814 nM | 2200 nM |
| ATVKFTYQGEEKQVDISKIKYVLRIGQAIWFRYDEGGGAIGNGWVSEEDAPKELLQMLGKR [SEQ ID NO:53] | higher affinity |  |  |
